Source: US20250051578A1, “RHODAMINE-METHYLENE BLUE DERIVATIVE FLUORESCENT PROBE AND PREPARATION METHOD AND APPLICATION THEREOF” (Henan Polytechnic University, priority 2023, published 2025)
“Also recorded” adds a separate entry of the source.

Test system: Raw246.7 cells
Assay: Dual-channel confocal fluorescence imaging of ClO^− and ATP in cells
Type: cell-based
Conditions: for fluorescence of the NIR channel (ClO^− level) versus control group / fluorescence of the yellow channel (ATP level) versus control group: Raw246.7 cells incubated with the substance 1 h, then fluorescent probe 1×10^−5 mol/L 30 min
Protocol: After Raw246.7 cells are incubated with relevant steps, fluorescence imaging is performed by an Olympus FV500-IX70 laser confocal microscope, and results of the fluorescence imaging are shown in FIG. 6. Control group (Control): the Raw246.7 cells are incubated with the fluorescent probe (1×10^−5 mol/L) for 30 minutes (min). Oligomycin A (Omy A) group: the Raw246.7 cells are incubated with Omy A (2×10^−5 mol/L) for 1 h and then incubated with the fluorescent probe (1×10^−5 mol/L) for 30 min. Omy A+ATP group: the Raw246.7 cells are incubated with Omy A (2×10^−5 mol/L) for 1 h to obtain incubated cells, the incubated cells are incubated with the ATP (1×10^−3 mol/L) for 1 h and then incubated with the fluorescent probe (1×10^−5 mol/L) for 30 min. N-acetylcysteine (NAC) group: the Raw246.7 cells are incubated with NAC (5×10^−4 mol/L) for 1 h and then incubated with the fluorescent probe (1×10^−5 mol/L) for 30 min. NAC+ClO^− group: the Raw246.7 cells are incubated with NAC (5×10^−4 mol/L) for 1 h to obtain incubated cells, the incubated cells are incubated with ClO^− (2×10^−4 mol/L) for 1 h and then incubated with the fluorescent probe (1×10^−5 mol/L) for 30 min.
After the Raw246.7 cells are incubated with relevant steps, the fluorescence imaging is performed by the Olympus FV500-IX70 laser confocal microscope, and results of the fluorescence imaging are shown in FIG. 7. Control group (Control): the Raw246.7 cells are incubated with the fluorescent probe (1×10^−5 mol/L) for 30 min, and a concentration of glucose (Glu) in a culture media is 5.5×10^−3 mol/L. Lipopolysaccharide (LPS) group: the Raw246.7 cells are incubated with LPS ([…]) for 1 h and then incubated with the fluorescent probe (1×10^−5 mol/L) for 30 min. No Glu group: the Raw246.7 cells are incubated with the fluorescent probe (1×10^−5 mol/L) for 30 min, and no Glu is added to the culture media. High Glu group: the Raw246.7 cells are incubated with the fluorescent probe (1×10^−5 mol/L) for 30 min, and the concentration of Glu in the culture media is 2.5×10^−2 mol/L. Acetaminophen (C8H9NO2, APAP) group: the Raw246.7 cells are incubated with […] for 1 h and then incubated with the fluorescent probe (1×10^−5 mol/L) for 30 min.

Row | Compound | fluorescence of the NIR channel (ClO^− level) versus control group | fluorescence of the yellow channel (ATP level) versus control group | detection of ClO^− in cells by the probe (Raw246.7 cells, probe 1×10^−5 mol/L 30 min, NIR channel, listed as fluorescent probe) | detection of ATP in cells by the probe (Raw246.7 cells, probe 1×10^−5 mol/L 30 min, yellow channel, listed as fluorescent probe)
1 | CC(=O)N[C@@H](CS)C(=O)O [NAC, N-acetylcysteine] | significantly weakened | significantly enhanced |  | 
2 | CC[C@@H]1/C=C/C=C/C[C@H](C)[C@H](O)[C@](C)(O)C(=O)[C@H](C)[C@@H](O)[C@H](C)C(=O)[C@H](C)[C@@H](O)[C@H](C)/C=C/C(=O)O[C@H]2[C@@H](C)[C@@H](CC1)O[C@@]1(CC[C@@H](C)[C@@H](C[C@H](C)O)O1)[C@@H]2C [Omy A, Oligomycin A] | significantly enhanced | significantly weakened |  | 
3 | CCN(CC)c1ccc2c(c1)Oc1cc(N(CC)CC)ccc1C21c2ccccc2C(=O)N1CCN1CCN(C(=O)N2c3ccc(N(C)C)cc3Sc3cc(N(C)C)ccc32)CC1 |  |  | can detect exogenous ClO^− in cells; also recorded: can detect endogenous ClO^− | can detect exogenous ATP in cells; also recorded: can detect endogenous ATP
4 | Lipopolysaccharide [LPS] | significantly enhanced | significantly weakened |  | 
5 | CC(=O)Nc1ccc(O)cc1 [APAP, Acetaminophen] | significantly enhanced | almost non-fluorescent |  | 
